# Reference: patent US8420606B2, “Method of utilizing physiological activity of rare saccharide and composition containing rare saccharide” (priority 2002, dated 2013)
# Entries after “also recorded” stand apart in the source; their conditions may differ.
# Key:
# [1] = system: KG-1; experiment: blood-system cancer cell strain proliferation, Coulter Counter, KG1; format: cell-based; settings: 0.05-50 mM, 7 days, including the control
# Method: (2) Method: Total 6 kinds of cell strains, i.e., Myeloid (HL-60, THP-1, KG-1), T-cell (MT-2), and B-Cell (Daudi, KS-1), and 3 kinds of rare saccharides (i.e., D-psicose, D-altrose, and D-allose), were employed. The culture medium and the cells were prepared to be 1 mL in total and 1×10^5 in number, respectively. Then, the cell number at each of fourth day and seventh day was counted by using a Coulter Counter. Each rare saccharide was added at concentrations of 0.05, 0.5, 5 and 50 mM, while D-glucose was used as a control.
# Culture Medium: FBS 10% added RPMI1460
# Cultivation Conditions: 37° C., 5% CO2
# Cultivation Vessel: FALCON, MULTIWELL, 12 wells
# Number of Cultivation Days: 7 days
# Saccharides Concentration: 0.05, 0.5, 5, 50 mM
# [2] = system: OVCAR3 (ovary cancer) cells; experiment: cell cycle analysis by flow cytometer; format: cell-based, human; settings: D-allose 50 mM, cultured for 3 days; control 12.6%
# Method: (2) Method: The cell cycle was analyzed by using a flow cytometer. Cells used here were OVCAR3 (ovary cancer) cells. 1) The cells were treated with trypsin to prepare a cell suspension liquid. 2) The cells were inaculated into a plastic tissue with a diameter of 100 mm and cultured for 24 hours (overnight) in a CO2 incubator. 3) Two groups of the cells, i.e., one with a rare saccharide (D-allose 50 mM) and the other with no rare saccharides (with D-glucose as a control), were cultured for 3 days. 4) The separated cells were washed twice with PBS(−). 5) After centrifugation, 3 mL of PBS(−) was added and stirred by pipetting. 6) 7 mL of 100% ethanol was added, followed by fixation at 4° C. for 2 hours. 7) The liquid was subjected to centrifugation at 1500 rpm for 5 minutes. 8) The separated cells were washed twice with cold PBS(−). 9) After centrifugation, 200 μg/mL of RNase was added, followed by incubation at 37° C. for 30 minutes. 10) 0.5 mL of PI (propidum iodide) was added, followed by incubation for 15 minutes. 11) The cell number was measured by using a flow cytometer.
# [3] = system: temporary eye ischemia model (rat); experiment: retina ischemia-reperfusion, glutamate by microdialysis; format: in vivo; settings: D-allose 200 mg/kg intravenous before the ischemia
# Method: (1) Purpose: This Example 6 is intended to study an influence of D-allose upon the retina in a temporary eye ischemia model (rat). (2) Method: The temporary eye ischemia model was prepared by raising the intraocular pressure up to a level of about 120 mmHg. The model was subjected to ischemia for 45 minutes and then to reperfusion. The concentration of glutamate released in the ischemia-reperfusion process was measured by the microdialysis method.
# [4] = system: glutamate release from hippocampus; experiment: temporary brain ischemia, glutamate outside hippocampus neurons by micro-dialysis; format: in vivo, gerbil
# Method: (2) Method: The bilateral common carotid artery of a gerbil was shut off for 5 minutes. After 1 week, the gerbil was sacrificed and a sample was prepared in accordance with the ordinary method, followed by hematoxyline eosin dyeing. The survival rate was measured by counting the number of hippocampus neurons while looking at them under a microscope. Experiments were performed on a normal control group, a group subjected to only ischemia, and a group administrated with 200 mg/kg of D-allose or D-psicose before ischemia. It is known that glutamates released in large amount from the neurons with ischemia are toxic to the neurons. Such a point was examined by fixing the gerbil to a brain position fixing device, perfusing a solution, in which oxidase glutamate is dissolved, to the hippocampus through a probe for micro-dialysis, and measuring the glutamate concentration outside the hippocampus neurons. Also, the inventors have clarified the relationship between the metabolism of glucose and the action mechanism of D-allose with ischemia by pre-administrating D-allose and 2-deoxiglucose.
# [5] = system: microglia migration; experiment: brain ischemia model, number of appearing microglias; format: in vivo, gerbil; settings: 200 mg/kg femoral vein 5 minutes before and immediately after 5 minutes ischemia; after 1 week
# Method: In this Example 11 described below, an influence of ketohexose belonging to the rare saccharides upon the number of microglias appearing with ischemia is examined. […] D-psicose was used as the ketohexose belonging to the rare saccharides. As a brain ischemia model, the bilateral common carotid artery of a male gerbil with weight of about 70 g was shut off for 5 minutes. In this model, neurons in the hippocampus CA1 area of a brain are peculiarly brought to ischemic cell necrosis.
# Comparative studies were made on three exemplified groups, i.e., one group not subjected to ischemia (control: Sham), another group subject to ischemia+treatment with physiological saline, and still another group subject to ischemia+treatment with D-psicose.
# The D-psicose treatment was performed through the steps of dissolving D-psicose in physiological saline to prepare a D-psicose solution with concentration of 200 mg/mL, and administrating the D-psicose solution to the ischemia model through the femoral vein in units of 200 mg/kg at 5 minuets before ischemia and immediately after the ischemia. The physiological saline treatment was performed by administering only physiological saline instead of the D-psicose solution. After 1 week from the ischemia, perfusion fixation was made and a frozen brain sample of 20 μm was prepared, followed by hematoxyline eosin dyeing.
# [6] = system: Human vascular endothelial cells (HUVECs); experiment: MCP-1 secretion from vascular endothelial cells, ELISA; format: cell-based; settings: D-psicose 0, 5.6, 11.2 mM, 24 hours
# Method: Human vascular endothelial cells (HUVECs) were cultured under the culture medium condition of (DMEM +10% FBS) in accordance with the ordinary method. HUVECs at concentration of about 70% were pipitted into a 96-well culture dish, and the following experiments were performed.
# D-psicose was added to the HUVECs culture medium at concentrations of 0 mM, 5.6 mM and 11.2 mM. After cultivation for 24 hours, MCP-1 in the culture medium was measured by using an ELISA (Quantikine, R&D) kit.
# HUVECs were pretreated for 1 hour with cytokines acting upon HUVECs and stimulating secretion of MCP-1, i.e., IL-1β (maximum secretion stimulus concentration of 1 ng/mL), and TNF-α (maximum secretion stimulus concentration of 10 ng/mL). Then, D-psicose was added at concentrations of 0 mM, 5.6 mM and 11.2 mM, and after 24-hour cultivation, the MCP-1 concentration in the culture medium was measured by using the ELISA kit. […] The secretion of MCP-1 in the vascular endothelial cells is stimulated by cytokines (IL-1β, TNF-α) at maximum secretion stimulus concentration of 1 ng/mL for IL-1β and 10 ng/mL for TNF-α.
SMILES,KG1 proliferation inhibitory effect [1],proportion of the cells in G2-M stage of the cell cycle [2] [%],glutamate concentration during the reperfusion [3],"glutamate concentration during the ischemia ([3]; 45 minutes ischemia, versus control)",inhibition rate of second peak of glutamate release (hyperperfusion after ischemia) ([4]; administration of D-allose),inhibition rate of first peak of glutamate release (with ischemia) ([4]; pre-administration of D-allose),number of appearing microglias [5],basic secretion of MCP-1 [6],cytokine-stimulated secretion of MCP-1 ([6]; IL-1β 1 ng/mL pretreatment 1 hour)
O=C[C@H](O)[C@H](O)[C@H](O)[C@H](O)CO [D-allose],having the inhibitory effect,22.6,completely inhibited,inhibited in comparison with that in the control,about 90%,about 25%,–,–,–
O=C(CO)[C@H](O)[C@H](O)[C@H](O)CO [D-psicose],–,–,–,–,–,–,reduced,able to inhibit the secretion of MCP-1 depending on the concentration; also recorded: has a MCP-1 secretion inhibitory effect,inhibited by added D-psicose depending on the concentration; also recorded: inhibits secretion of MCP-1
